Where “and” joins values, the source holds several entries; their conditions need not be identical. Equal values may be shown once.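 Five compound concentrations were applied to cells in 96-well plates for 48 hours; endpoints were derived by simple linear interpolation of the resulting dose-response curve. Here, GI50 denotes the concentration required for 50% inhibition of growth. At the TGI there is no net growth.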 Where a SMILES comes first, the peptide text is derived from it. The star is where a group is joined. Cbz = O=C(OCc1ccccc1)* A value given as a limit tells only on which side of the number the result lay.

Common to all, as to experiment: growth of human tumour cells (NCI), 48 h
In assay [1] the test system is SF-295 CNS.
Assay [2] concerns MDA-MB-231 breast.
Assay [3] concerns DU-145 prostate.
For assay [4], the system named is SN12C renal.
For assay [5], the system named is PC-3 prostate.
Assay [6] has as its system SNB-19 CNS.
For assay [7], the system named is HS 578T breast.
For assay [8], the system named is MCF7 breast.
In assay [9] the test system is OVCAR-5 ovarian.
For assay [10], the system named is UACC-62 melanoma.
Assay [11] relates to RXF 393 renal.

As for `CCOP(=O)(OCC)/C(C#N)=C/c1ccc(-c2cc(C(F)(F)F)cc(C(F)(F)F)c2)o1`, the TGI came out at 11.8 µM in assay [1]; 26.8 µM in [2]; 29.1 µM in assay [3]; 29.1 µM in assay [4]; 24 µM in assay [5]; 32 µM in assay [6]. The TGI is over 100 µM in assay [7], 20 µM in assay [8] and 26.1 µM in assay [9].
`O=Cc1ccc(-c2ccc(-c3ccc(CO)s3)o2)s1`: the TGI in assay [1] was over 87.9 µM; in [2] it was over 80.3 µM; in assay [3], over 71.6 µM; in assay [4], over 88.8 µM; in [5], over 100 µM; in assay [6], over 100 µM. In addition, the TGI is 59.5 µM in [7], 6.03 µM in [10], 47.6 µM in assay [11] and over 100 µM in assay [8].
As to `Cc1cc(C)nc(NC(P(=O)(O)O)P(=O)(O)O)n1`, the TGI in assay [1], in assay [2], in assay [3], in assay [5], in assay [6] and in [7] was over 100 µM throughout. The TGI in [10], in assay [11], in assay [8] and in [9] was over 100 µM each time.
With `C=C1CCCCCCCCC/C=C/1SCCCSC`, the TGI in [1], in assay [2], in assay [3], in assay [4], in assay [5] and in [6] was over 100 µM in each case. In addition, the TGI in [7], in assay [10], in assay [11], in assay [8] and in assay [9] was over 100 µM throughout.
`CCOC(=O)CCC(NC(=O)C(Cc1ccccc1)NC(=O)OCc1ccccc1)C(=O)OCC` (stereo not drawn) (Cbz-Phe-Glu(OEt)-OEt; configuration not given here): the TGI in assay [1] is 34.1 µM; in assay [2], 29.5 µM; in assay [3] it was 22.3 µM; in assay [4], 37.7 µM; in [5] it was 32.1 µM; in assay [6], 36.7 µM. For the same molecule, the TGI in assay [7] was found to be 35 µM; in [10], 32.5 µM; in assay [11] it was 32.1 µM; in assay [8], 39.6 µM; in assay [9], 32.6 µM.
With `CC1(C)O[C@H]2OC(CO)C(N=[N+]=[N-])[C@H]2O1` (stereo not given in full), the TGI in assay [1], in [2], in [3], in [4], in assay [5] and in assay [6] was over 100 µM throughout. The TGI in [7], in assay [10], in [8] and in [9] was over 100 µM each time.
Regarding `CN1CC=C(c2c(N)nc(N)[nH]c2=O)CC1`, the TGI in assay [1], in assay [2], in assay [3], in [4], in assay [5] and in assay [6] was over 100 µM in each case. The TGI in assay [7], in [10], in [11], in assay [8] and in assay [9] was over 100 µM throughout.
In the case of `N/C(=N\S(=O)(=O)c1ccc(-c2ncccc2C(F)(F)F)s1)Nc1ccc(Cl)cc1`, the TGI in assay [1] was 31.6 µM; in assay [2], 27.2 µM; in assay [3], 36.4 µM; in assay [4] it was 38.3 µM; in assay [5], 25.8 µM; in assay [6] it was 34.4 µM. In addition, the TGI in [7] came to 40.5 µM; in assay [10], 23.3 µM; in assay [11], 41.5 µM; in assay [8] it was 30 µM; in assay [9], 44 µM.
In the case of `O=C1OCC2OC(=O)c3cc(O)c(O)c(O)c3-c3c(O)c(O)c(O)c4c3C(=O)OC(C2OC(=O)c2cc(O)c(O)c(O)c2-c2c1cc(O)c(O)c2O)C1OC(=O)C2C4=C(O)C(=O)C23Oc2cc(O)c4c(c2[C@H]13)O[C@H](c1ccc(O)c(O)c1)[C@@H](O)C4` (stereo not given in full), the TGI was 53.5 µM in assay [1]; 43.5 µM in assay [2]; over 100 µM in assay [3]; 42 µM in assay [4]; over 100 µM in [5]; over 100 µM in [6]. The TGI in assay [7] is over 100 µM; in [10], 45.6 µM; in assay [11], 34.9 µM; in assay [8], 46.3 µM; in assay [9] it was 36.2 µM.
For `Cc1ccc(S(=O)(=O)C2=C(C(C)C)N=NC2(C)C)cc1`, the TGI in assay [1], in assay [2], in [3], in [4], in assay [5] and in assay [6] was over 100 µM throughout. Also, the TGI in assay [7], in [11], in [8] and in assay [9] was over 100 µM throughout.
In the case of `OC(C/C=N/N=C/CC(O)(C(F)(F)Cl)C(F)(F)Cl)(C(F)(F)Cl)C(F)(F)Cl`, the TGI in [1], in [2], in [3], in assay [4], in assay [5] and in assay [6] was over 10 µM each time. Further, the TGI in assay [7], in assay [10], in [11] and in [8] was over 10 µM each time.
For `O=C1CC(=O)NC(=NN2C(=O)/C(=C/c3ccc(Cl)c(Cl)c3)N=C2c2ccccc2)N1`, the TGI in assay [1] is over 100 µM; in assay [2] it was 51.7 µM; in assay [3], over 100 µM; in [4] it was 34.8 µM; in assay [5], 72.7 µM; in assay [7], 50.9 µM. Besides, the TGI in [10] was 32.6 µM; in assay [11] it was 92.6 µM; in [8], 49.8 µM; in [9], over 100 µM.
For `COCn1cnc2c(=O)nc(SC)n(-c3ccccc3)c21`, the TGI in assay [1], in [2], in assay [3], in [4], in assay [6] and in [7] was over 100 µM in each case. Also, the TGI in assay [10], in [11], in [8] and in [9] was over 100 µM in each case.
As to `CS(=O)(=O)N1CC(CCl)c2ccc(O)cc21` (stereo not given), the TGI was 11.6 µM in assay [1]; 6.16 µM in [2]; 11.3 µM in assay [3]; 14.5 µM in assay [4]; 5.88 µM in [5]; 90.9 µM in assay [7]. In addition, the TGI in assay [10] was 28.7 µM; in assay [11], 4.19 µM; in assay [8], over 100 µM; in assay [9], 16.3 µM.
For the molecule `COc1cccc(CC(=O)N2CCN(CCCc3ccccc3)CC2)c1`, the TGI in assay [1], in assay [2], in assay [3], in assay [4], in assay [5] and in assay [6] was over 100 µM throughout. Also, the TGI in assay [7], in [10], in assay [8] and in assay [9] was over 100 µM in each case.
Turning to `Cc1ccc(C(=O)NCc2ccccc2)cc1N=NN(C)C`, the TGI in assay [1], in assay [2], in assay [3], in assay [4], in assay [5] and in [6] was over 100 µM each time. Further, the TGI in [7], in assay [10], in [8] and in assay [9] was over 100 µM in each case.
Consider `COc1cc(Nc2nc3cc(C(F)(F)F)ccc3nc2C(=O)O)cc(OC)c1OC`, for which the TGI is 67.8 µM in assay [1]; 70.3 µM in assay [2]; over 100 µM in [3]; over 100 µM in [4]; over 100 µM in assay [6]; over 100 µM in assay [7]. In addition, the TGI in assay [10] is over 100 µM; in assay [11], 70.2 µM; in [8], over 100 µM; in [9] it was over 100 µM.
For the molecule `CC(=O)c1c(N=[N+]=[N-])c2cccc3c2n(c1=O)CCC3`, the TGI in assay [1] was 60 µM; in assay [2], 32.1 µM; in assay [4], 44.5 µM; in [5] it was 38.6 µM; in [6], over 100 µM; in assay [7] it was 78.3 µM. The TGI stood at 35.1 µM in [10], 45.4 µM in [11], 62.5 µM in assay [8] and 34.5 µM in assay [9].
On to `Cc1ccc2c(c1)CC1(Cc3cccc(C)c3C1=O)C2=O` (stereo not given), for which the TGI in assay [1], in [2], in assay [3], in assay [4], in assay [5] and in [7] was over 100 µM each time. Further, the TGI in assay [10] was over 100 µM; in assay [11] it was over 100 µM; in [8], over 10 µM; in assay [9] it was over 100 µM.
For the molecule `C/C=C\C(CC(=O)NCC(=O)c1c[nH]c2ccccc12)CC(=O)OC` (stereo not given), the TGI in [1], in [2], in [3], in assay [5], in [6] and in [7] was over 100 µM each time. Moreover, the TGI in assay [10], in assay [11], in [8] and in assay [9] was over 100 µM each time.
For `S=C1NCCN1C(=S)Nc1ccccc1`, the TGI in assay [1], in [2], in [3], in assay [4], in assay [7] and in assay [10] was over 100 µM throughout. For the same molecule, the results for the TGI in assay [11], in [8] and in assay [9] were 58 µM, over 100 µM and over 100 µM, respectively.
With `O=c1cc(NNc2cccc(Cl)c2)[nH]c(=O)[nH]1`, the TGI in assay [2] is 32.1 µM; in assay [3] it was over 100 µM; in assay [5], over 100 µM; in assay [6] it was over 100 µM; in [7] it was over 100 µM; in [10] it was over 100 µM. In addition, the TGI in assay [11] is over 100 µM; in assay [8] it was 17.3 µM; in assay [9] it was over 100 µM.
`Cn1nnnc1SC(F)(F)c1nc2ccccc2o1`: the TGI in [1], in assay [2], in assay [3], in assay [4], in assay [5] and in assay [7] was over 100 µM throughout. Also, the TGI in assay [10], in assay [11], in assay [8] and in [9] was over 100 µM each time.
Regarding `O=C1C=C(Nc2ccc(S(=O)(=O)Nc3nccs3)cc2)c2ccccc2C1=O`, the TGI in assay [1] was 32.3 µM; in assay [2] it was 71.3 µM; in assay [4], 47.2 µM; in assay [5], over 100 µM; in assay [6], 86.3 µM; in assay [7] it was 75.1 µM. Further, the TGI in assay [10] was 53.5 µM; in assay [11] it was over 100 µM; in assay [8] it was 36.1 µM; in assay [9], 43.9 µM.
Turning to `CC(=O)c1ccc2c(c1)C(=O)c1sc(C(C)=O)cc1C2=O`, the GI50 in assay [1] was 1.56 µM; in [2], 0.521 µM; in assay [3], 1.54 µM; in [4], 0.953 µM; in assay [5], 2.55 µM; in [6] it was 1.34 µM. Besides, the GI50 in assay [7] is 2.21 µM; in assay [9], 1.87 µM. Also, the TGI in assay [1] is 1.84 µM and 3 µM; in [2], 3.75 µM and 7.75 µM; in [3], 2.12 µM and 3 µM; in [4], 2.18 µM and 4.76 µM; in [5], 7.12 µM and 11.3 µM; in [6] it was 1.66 µM and 2.61 µM. For the same molecule, the TGI in [7] was 50 µM and 7.03 µM; in assay [11], 4.7 µM; in assay [8], 4.7 µM; in assay [9], 2.36 µM and 3.92 µM.
On to `C=C1CC[C@H]2C(=O)OC(c3ccoc3)C[C@]2(C)C/C=C\C=C/1C(=O)OC` (stereo not given in full), for which the TGI in [1], in [2], in [4], in assay [5], in assay [6] and in [7] was over 25 µM throughout. Further, the TGI in assay [10], in assay [11], in [8] and in assay [9] was over 25 µM throughout.

The values are drawn from PubChem BioAssay (NCI).
